Measurements: US7741344B2, “Process for preparing purified S-BEL and R-BEL and compositions thereof” (Washington University in St. Louis, priority 2002, dated 2010)

What was measured:
[1] = tested on: purified recombinant iPLA2β; experiment: Assay of iPLA2β inhibition by BEL (radiolabeled phospholipid substrate); format: biochemical; details: FIG. 4A
Description: Recombinant iPLA2 Enzymes—Recombinant iPLA2β was expressed and purified from Sf9 cells as previously described (35).
Assay of iPLA2β and iPLA2γ Inhibition by BEL—Purified recombinant iPLA2β or Sf9 cell membranes containing recombinant iPLA2γ were incubated with (R) BEL, (S) BEL, racemic BEL, or ethanol vehicle for 3 mm at 22° C. in the presence of 100 mM Tris-HCl (pH 7.0) and 4 mM EGTA (for iPLA2β) or 100 mM Tris-acetate (pH 8.0) and 4 mM EGTA (for iPLA2γ). The concentration of BEL used for each test ranged from 0 to 16 μM. L-α-1-palmitoyl-2-[1^14C]-arachidonyl-phosphatidylcholine (5 μM final concentration) or L-α-1-palmitoyl-2-[1-^14C]-oleoyl-phosphatidylcholine (5 μM final concentration) in ethanol was then added to each sample and incubated at 37° C. for 2 min. Reactions were terminated by extraction of radiolabeled products into butanol, and reactants and products were separated by thin layer chromatography using Whatman LK6D 60 Å Silica Gel plates with petroleum ether/ethyl ether/acetic acid (70:30:1) as the mobile phase. Regions corresponding to the migration of a fatty acid standard visualized by iodine staining were scraped into vials and radioactivity was quantified by scintillation spectrometry.
Panel A—Purified recombinant iPLA2β (1 μg/ml) in 100 mM Tris-HCl, pH 7.3 containing 1 mM EGTA was preincubated at 22° C. for 3 mm in the presence of the indicated concentrations of (R)-, (S)-, or rac-BEL or ethanol vehicle alone (1% final concentration). Radiolabeled substrate (L-α-1-palmitoyl-2-[1-^14C]-arachidonyl-phosphatidylcholine, 5 μM final concentration) was then added to each reaction and incubated at 37° C. for 2 min. Reactions were terminated by extraction of remaining substrate and products into butanol, separation by TLC, and quantification of released radiolabeled fatty acid by scintillation spectrometry as described in Experimental Procedures.

[2] = tested on: phosphatidate phosphohydrolase in A-10 cells; experiment: Total phosphatidate phosphohydrolase activity in homogenates of intact A-10 cells pretreated with BEL; format: cell-based, rat; details: intact A-10 cells exposed to up to 100 μM; FIG. 6B
Description: Measurement of Cytosolic and Membrane-bound Phosphatidate Phosphohydrolase Activities—A-10 cells were grown to confluency, washed twice in ice-cold phosphate-buffered saline, and harvested in lysis buffer (50 mM Tris-HCl, pH 7.4 containing 0.25 M sucrose and 0.2 mM DTT). After brief sonication utilizing a Vibra-Cell VC4O sonicator (5×1 s pulses at 30% power), the lysed cell suspension was centrifuged at 100,000×g for 1 hr to separate cytosolic and membrane fractions. In some tests, A-10 cells were washed and pretreated with BEL or ethanol vehicle (as described above for tests examining [^3H]-AA liberation) before isolation of cell homogenates. […] Reactions were terminated with 900 μL of 5% acetic acid and extracted into chloroform by the method of Bligh and Dyer (38) prior to separating dipaliitoyl glycerol by TLC utilizing chloroform: methanol: water (65:35:2) as the mobile phase prior to quantification by scintillation spectrometry.
A-10 cells plated on 100 mm dishes were washed 2× in ice-cold PBS and harvested in lysis buffer (50 mM Tris-HCl, pH 7.4 containing 0.25 M sucrose and 0.2 mM DTT). […] In panel B, intact A-10 cells were washed and pretreated with BEL or ethanol vehicle (as described in FIG. 5) before isolation of the cell homogenate and quantification of phosphatidate phosphohydrolase activity as described above. […]

recombinant human iPLA2γ = biological target: T1, recombinant human iPLA2γ (Homo sapiens, UniProt Q9NP80); details: previous experiments (24, 31); cited from earlier work
T1 construct: Recombinant full-length iPLA2γ was expressed in Sf9 cells; made in house; host or cells: Sf9 cells (washed membrane fraction, not purified)
T1 sequence (Q9NP80 1-782): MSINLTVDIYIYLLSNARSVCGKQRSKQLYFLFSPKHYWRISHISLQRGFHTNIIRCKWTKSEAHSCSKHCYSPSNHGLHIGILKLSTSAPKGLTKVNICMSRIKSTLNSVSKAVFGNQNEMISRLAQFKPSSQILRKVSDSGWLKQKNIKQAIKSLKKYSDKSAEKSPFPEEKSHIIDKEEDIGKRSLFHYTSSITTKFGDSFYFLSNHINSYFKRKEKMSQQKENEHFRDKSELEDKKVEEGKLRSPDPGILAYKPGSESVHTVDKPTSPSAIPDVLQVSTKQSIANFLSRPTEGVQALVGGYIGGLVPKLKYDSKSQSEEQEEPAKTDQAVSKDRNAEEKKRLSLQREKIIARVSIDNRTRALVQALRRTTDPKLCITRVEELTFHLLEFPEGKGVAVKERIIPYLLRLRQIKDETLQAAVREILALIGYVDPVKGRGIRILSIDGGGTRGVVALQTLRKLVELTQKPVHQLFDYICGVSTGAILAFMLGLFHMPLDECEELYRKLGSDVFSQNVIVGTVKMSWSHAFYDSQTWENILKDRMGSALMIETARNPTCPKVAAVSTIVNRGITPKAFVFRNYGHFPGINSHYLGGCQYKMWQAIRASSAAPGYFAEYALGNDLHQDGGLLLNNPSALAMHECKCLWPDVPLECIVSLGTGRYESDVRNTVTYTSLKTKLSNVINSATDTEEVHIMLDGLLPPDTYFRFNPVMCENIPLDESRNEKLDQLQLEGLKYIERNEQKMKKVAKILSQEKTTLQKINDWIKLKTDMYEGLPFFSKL

[3] = tested on: magnesium-dependent cytozoic phosphatidate phosphohydrolase, PAP-1; details: 25 μM BEL; (33, 34); cited from earlier work

For `O=C1OC(=CBr)CCC1c1cccc2ccccc12` (racemic) [rac-BEL, Racemic (E)-6-(bromomethylene)-3-(1-naphthalenyl)-2H-tetrahydropyran-2-one], the “inhibitory potency on iPLA2β relative to the enantiomers” value [1] is listed as “intermediate of that of (R)-BEL and (S)-BEL”, the “total phosphatidate phosphohydrolase activity in comparison to ethanol-treated controls” value [2] is listed as “did not inhibit” and the IC50 (recombinant human iPLA2γ) is listed as about 3 µM. The “inhibition of PAP-1” value [3] was “partially inhibit”.
